From PMC8799717, “Pharmacological targeting PIKfyve and tubulin as an effective treatment strategy for double-hit lymphoma” (Cell Death Discovery, 2022)

Key:
Experiment in all cases: biochemical
Design in all cases: KINOMEscan active-site-directed competition binding panel, 468 kinases, percent of DMSO control at 1 uM
Details in all cases: KINOMEscan binding, percent of DMSO control; read-out: Ctrl%
MAP3K15 = MAP3K15 (Homo sapiens, UniProt Q6ZN16)
PKAC-alpha = biological target: T1, PKAC-alpha (Homo sapiens, UniProt P17612)
T1 construct: gene PRKACA

WNK4 = WNK4 (Homo sapiens, UniProt Q96J92)
FGR = FGR (Homo sapiens, UniProt P09769)
PLK1 = PLK1 (Homo sapiens, UniProt P53350)
LATS1 = LATS1 (Homo sapiens, UniProt O95835)
NEK2 = NEK2 (Homo sapiens, UniProt P51955)
PRKG2 = PRKG2 (Homo sapiens, UniProt Q13237)
MST1 = biological target: T2, MST1 (Homo sapiens, UniProt Q13043)
T2 construct: gene STK4

SIK2 = SIK2 (Homo sapiens, UniProt Q9H0K1)
BLK = BLK (Homo sapiens, UniProt P51451)
[1] = biological target: T3, ABL1(T315I)-phosphorylated (Homo sapiens, UniProt P00519, T315I)
T3 construct: phosphorylated

MAST1 = MAST1 (Homo sapiens, UniProt Q9Y2H9)
VRK2 = VRK2 (Homo sapiens, UniProt Q86Y07)
IGF1R = IGF1R (Homo sapiens, UniProt P08069)
JNK3 = biological target: T4, JNK3 (Homo sapiens, UniProt P53779)
T4 construct: gene MAPK10

KIT(L576P) = KIT(L576P) (Homo sapiens, UniProt P10721, L576P)
EPHA4 = EPHA4 (Homo sapiens, UniProt P54764)
FES = FES (Homo sapiens, UniProt P07332)
CSNK1E = CSNK1E (Homo sapiens, UniProt P49674)
CDC2L5 = biological target: T5, CDC2L5 (Homo sapiens, UniProt Q14004)
T5 construct: gene CDK13

CSK = CSK (Homo sapiens, UniProt P41240)
[2] = biological target: T6, JAK2(JH1domain-catalytic) (Homo sapiens, UniProt O60674)
T6 construct: JH1domain-catalytic

PKN1 = PKN1 (Homo sapiens, UniProt Q16512)

Sequence of NEK2 (P51955 whole entry): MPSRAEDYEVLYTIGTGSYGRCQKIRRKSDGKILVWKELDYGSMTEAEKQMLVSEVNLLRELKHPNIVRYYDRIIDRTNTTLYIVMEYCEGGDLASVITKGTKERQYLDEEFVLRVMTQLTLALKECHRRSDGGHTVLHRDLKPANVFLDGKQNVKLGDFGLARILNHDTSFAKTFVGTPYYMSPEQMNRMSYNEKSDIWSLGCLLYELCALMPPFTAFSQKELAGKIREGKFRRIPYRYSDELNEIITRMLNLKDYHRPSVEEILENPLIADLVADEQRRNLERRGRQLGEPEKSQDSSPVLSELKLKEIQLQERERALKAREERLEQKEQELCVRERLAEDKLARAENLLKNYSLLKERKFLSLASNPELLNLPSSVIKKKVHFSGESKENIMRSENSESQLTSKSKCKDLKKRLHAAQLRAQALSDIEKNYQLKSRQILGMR
Sequence of SIK2 (Q9H0K1 whole entry): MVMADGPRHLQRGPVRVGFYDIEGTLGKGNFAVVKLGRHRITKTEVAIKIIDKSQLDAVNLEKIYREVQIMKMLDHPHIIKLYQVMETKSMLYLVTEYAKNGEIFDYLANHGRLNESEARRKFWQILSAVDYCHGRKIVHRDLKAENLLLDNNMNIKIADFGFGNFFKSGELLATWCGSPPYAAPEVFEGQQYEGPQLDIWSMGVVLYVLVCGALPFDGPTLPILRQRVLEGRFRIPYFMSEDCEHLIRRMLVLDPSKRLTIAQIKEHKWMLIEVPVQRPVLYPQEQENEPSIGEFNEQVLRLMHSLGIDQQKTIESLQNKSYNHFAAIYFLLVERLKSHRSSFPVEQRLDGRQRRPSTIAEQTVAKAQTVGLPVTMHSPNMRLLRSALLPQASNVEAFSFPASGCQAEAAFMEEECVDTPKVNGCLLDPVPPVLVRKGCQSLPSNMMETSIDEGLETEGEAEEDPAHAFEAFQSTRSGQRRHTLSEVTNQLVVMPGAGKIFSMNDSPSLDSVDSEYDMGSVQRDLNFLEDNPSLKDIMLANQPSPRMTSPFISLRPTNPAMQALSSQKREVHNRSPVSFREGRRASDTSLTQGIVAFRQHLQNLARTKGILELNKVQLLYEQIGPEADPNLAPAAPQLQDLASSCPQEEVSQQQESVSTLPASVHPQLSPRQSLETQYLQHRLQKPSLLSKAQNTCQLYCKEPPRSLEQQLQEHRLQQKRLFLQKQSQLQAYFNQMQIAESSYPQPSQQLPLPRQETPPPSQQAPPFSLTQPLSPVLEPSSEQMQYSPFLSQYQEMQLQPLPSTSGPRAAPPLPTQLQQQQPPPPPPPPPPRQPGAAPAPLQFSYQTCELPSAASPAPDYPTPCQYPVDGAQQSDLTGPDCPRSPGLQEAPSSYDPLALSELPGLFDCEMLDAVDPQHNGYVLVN
Sequence of FES (P07332 whole entry): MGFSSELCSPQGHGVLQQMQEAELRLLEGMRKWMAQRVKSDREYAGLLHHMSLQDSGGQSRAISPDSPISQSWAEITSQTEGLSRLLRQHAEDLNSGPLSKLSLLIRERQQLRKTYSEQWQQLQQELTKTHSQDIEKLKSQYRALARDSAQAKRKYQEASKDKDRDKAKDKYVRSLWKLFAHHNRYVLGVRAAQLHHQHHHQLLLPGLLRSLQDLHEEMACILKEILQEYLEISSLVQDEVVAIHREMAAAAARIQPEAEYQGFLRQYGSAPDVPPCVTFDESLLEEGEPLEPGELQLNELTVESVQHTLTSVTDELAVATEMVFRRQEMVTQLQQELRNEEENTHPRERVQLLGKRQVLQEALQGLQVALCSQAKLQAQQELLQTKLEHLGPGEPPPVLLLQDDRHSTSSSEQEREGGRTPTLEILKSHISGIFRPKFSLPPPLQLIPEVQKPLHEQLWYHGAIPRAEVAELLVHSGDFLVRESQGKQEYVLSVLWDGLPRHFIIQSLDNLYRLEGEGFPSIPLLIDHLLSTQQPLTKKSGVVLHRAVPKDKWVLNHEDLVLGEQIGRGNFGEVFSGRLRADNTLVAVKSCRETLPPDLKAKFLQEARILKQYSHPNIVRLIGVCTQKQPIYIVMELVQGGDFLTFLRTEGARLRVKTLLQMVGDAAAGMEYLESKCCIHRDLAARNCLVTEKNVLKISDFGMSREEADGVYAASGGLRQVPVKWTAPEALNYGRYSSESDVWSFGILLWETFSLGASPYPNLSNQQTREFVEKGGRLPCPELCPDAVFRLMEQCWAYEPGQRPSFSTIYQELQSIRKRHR
T5 sequence (Q14004 whole entry): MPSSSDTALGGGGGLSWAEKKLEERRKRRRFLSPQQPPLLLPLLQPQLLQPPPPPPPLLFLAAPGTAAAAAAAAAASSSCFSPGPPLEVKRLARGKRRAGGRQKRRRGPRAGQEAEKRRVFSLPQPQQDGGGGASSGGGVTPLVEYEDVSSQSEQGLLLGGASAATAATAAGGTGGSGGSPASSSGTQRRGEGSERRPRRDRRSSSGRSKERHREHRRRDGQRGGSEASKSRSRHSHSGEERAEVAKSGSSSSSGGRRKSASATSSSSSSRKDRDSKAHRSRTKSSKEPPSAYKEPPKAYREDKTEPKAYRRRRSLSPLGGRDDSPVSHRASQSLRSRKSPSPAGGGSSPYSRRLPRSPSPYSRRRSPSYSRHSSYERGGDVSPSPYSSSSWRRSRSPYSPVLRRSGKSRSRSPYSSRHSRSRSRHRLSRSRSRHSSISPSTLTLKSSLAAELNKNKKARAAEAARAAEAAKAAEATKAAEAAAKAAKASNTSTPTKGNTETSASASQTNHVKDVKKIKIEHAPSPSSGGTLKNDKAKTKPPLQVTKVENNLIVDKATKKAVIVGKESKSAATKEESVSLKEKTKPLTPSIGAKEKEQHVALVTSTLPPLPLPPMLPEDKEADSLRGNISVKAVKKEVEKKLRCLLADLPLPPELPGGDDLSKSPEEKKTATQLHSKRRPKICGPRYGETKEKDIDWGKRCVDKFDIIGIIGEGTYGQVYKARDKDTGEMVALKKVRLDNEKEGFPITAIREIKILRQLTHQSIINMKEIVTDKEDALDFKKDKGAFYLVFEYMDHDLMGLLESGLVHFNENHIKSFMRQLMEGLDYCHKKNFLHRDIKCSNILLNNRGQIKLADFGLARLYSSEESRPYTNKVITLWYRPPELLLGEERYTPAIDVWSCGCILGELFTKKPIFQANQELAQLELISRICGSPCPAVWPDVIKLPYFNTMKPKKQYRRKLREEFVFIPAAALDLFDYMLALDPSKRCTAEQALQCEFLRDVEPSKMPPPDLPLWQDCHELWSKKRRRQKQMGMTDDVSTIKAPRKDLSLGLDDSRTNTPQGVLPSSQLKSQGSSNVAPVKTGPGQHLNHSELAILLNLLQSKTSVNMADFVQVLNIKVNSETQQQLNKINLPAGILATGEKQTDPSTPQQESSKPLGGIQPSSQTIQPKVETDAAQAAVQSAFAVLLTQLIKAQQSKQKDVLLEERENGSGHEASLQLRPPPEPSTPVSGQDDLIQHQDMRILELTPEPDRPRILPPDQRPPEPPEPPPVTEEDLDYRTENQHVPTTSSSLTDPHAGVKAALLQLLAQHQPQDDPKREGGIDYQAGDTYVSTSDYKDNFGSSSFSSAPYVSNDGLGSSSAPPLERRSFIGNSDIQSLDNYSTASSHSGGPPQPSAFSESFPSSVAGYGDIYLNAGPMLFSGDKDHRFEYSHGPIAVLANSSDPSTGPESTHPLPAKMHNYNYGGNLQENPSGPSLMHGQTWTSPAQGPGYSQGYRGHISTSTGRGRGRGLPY
Sequence of LATS1 (O95835 whole entry): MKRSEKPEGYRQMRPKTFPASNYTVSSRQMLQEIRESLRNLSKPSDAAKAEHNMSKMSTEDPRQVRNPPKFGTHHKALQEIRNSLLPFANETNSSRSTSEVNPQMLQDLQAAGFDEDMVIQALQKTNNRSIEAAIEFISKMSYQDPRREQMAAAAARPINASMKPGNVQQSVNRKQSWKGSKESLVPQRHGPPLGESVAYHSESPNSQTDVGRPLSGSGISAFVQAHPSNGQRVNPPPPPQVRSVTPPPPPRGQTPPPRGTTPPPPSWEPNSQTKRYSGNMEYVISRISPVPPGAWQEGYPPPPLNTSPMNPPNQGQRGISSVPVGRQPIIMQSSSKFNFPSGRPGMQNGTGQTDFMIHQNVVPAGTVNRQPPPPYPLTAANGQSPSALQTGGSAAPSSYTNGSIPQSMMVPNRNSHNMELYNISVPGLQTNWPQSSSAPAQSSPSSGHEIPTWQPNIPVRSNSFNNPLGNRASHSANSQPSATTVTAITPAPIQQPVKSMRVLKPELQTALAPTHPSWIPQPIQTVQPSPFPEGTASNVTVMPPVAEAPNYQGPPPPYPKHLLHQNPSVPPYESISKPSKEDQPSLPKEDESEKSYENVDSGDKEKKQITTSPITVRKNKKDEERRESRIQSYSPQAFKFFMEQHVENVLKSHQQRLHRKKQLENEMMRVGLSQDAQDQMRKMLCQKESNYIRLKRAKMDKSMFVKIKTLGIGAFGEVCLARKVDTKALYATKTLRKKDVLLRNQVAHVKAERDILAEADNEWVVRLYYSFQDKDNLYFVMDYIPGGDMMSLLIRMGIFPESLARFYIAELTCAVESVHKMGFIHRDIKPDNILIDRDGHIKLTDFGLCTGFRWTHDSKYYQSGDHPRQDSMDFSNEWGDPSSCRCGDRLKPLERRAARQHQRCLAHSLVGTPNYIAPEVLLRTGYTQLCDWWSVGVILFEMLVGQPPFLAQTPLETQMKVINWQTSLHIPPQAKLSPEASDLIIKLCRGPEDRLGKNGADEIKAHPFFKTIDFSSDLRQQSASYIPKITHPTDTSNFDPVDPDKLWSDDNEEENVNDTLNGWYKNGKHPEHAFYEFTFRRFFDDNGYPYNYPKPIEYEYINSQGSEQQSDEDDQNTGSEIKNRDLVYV

## Cc1ccc(NC(=O)c2cccc(C(F)(F)F)c2)cc1Nc1cc(-c2cccnc2)nc2[nH]ccc12 [HZX-02-059]
MAP3K15
  remaining binding at 1 µM: 53%
PKAC-alpha
  remaining binding at 1 µM: 94%
WNK4
  remaining binding at 1 µM: 100%
FGR
  remaining binding at 1 µM: 92%
PLK1
  remaining binding at 1 µM: 100%
LATS1
  remaining binding at 1 µM: 95%
NEK2
  remaining binding at 1 µM: 66%
PRKG2
  remaining binding at 1 µM: 89%
MST1
  remaining binding at 1 µM: 74%
SIK2
  remaining binding at 1 µM: 87%
BLK
  remaining binding at 1 µM: 91%
[1]
  remaining binding at 1 µM: 98%
MAST1
  remaining binding at 1 µM: 100%
VRK2
  remaining binding at 1 µM: 100%
IGF1R
  remaining binding at 1 µM: 92%
JNK3
  remaining binding at 1 µM: 96%
KIT(L576P)
  remaining binding at 1 µM: 0.3%
EPHA4
  remaining binding at 1 µM: 8.3%
FES
  remaining binding at 1 µM: 100%
CSNK1E
  remaining binding at 1 µM: 97%
CDC2L5
  remaining binding at 1 µM: 100%
CSK
  remaining binding at 1 µM: 91%
[2]
  remaining binding at 1 µM: 100%
PKN1
  remaining binding at 1 µM: 93%
